The term pKd denotes the negative decadic logarithm of the Kd, by convention in mol/L.

SMILES strings stand for the structures. pKd: −log10 of the molar value. Residues, ends and D or L forms follow the SMILES beside them.

The experiment deals with Nucleic Acid. Kind of experiment: Dissociation constant with HIV-1 trans activation responsive element of mRNA was determined. It is filed as nucleic-acid assay, Human immunodeficiency virus 1. The following applies: for pKd: read-out: Kd.

With `C[C@H](N)C(=O)N[C@@H](C)C(=O)N[C@@H](C)C(=O)N[C@@H](C)C(=O)N[C@@H](CCCCN)C(=O)N[C@@H](CCCCN)C(=O)N[C@@H](CCCN=C(N)N)C(=O)N[C@@H](CCCN=C(N)N)C(=O)N[C@@H](C)C(=O)N[C@@H](CCCN=C(N)N)C(=O)N[C@@H](CCCN=C(N)N)C(=O)N[C@@H](CCCN=C(N)N)C(=O)N[C@@H](C)C(=O)N[C@@H](C)C(=O)N[C@@H](C)C(=O)O` (H-AAAAKKRRARRRAAA-OH), the pKd was 6.77.
Still for that read-out and setting: with `C[C@H](N)C(=O)N[C@@H](C)C(=O)N[C@@H](C)C(=O)N[C@@H](C)C(=O)N[C@@H](C)C(=O)N[C@@H](CCCN=C(N)N)C(=O)N[C@@H](CCCN=C(N)N)C(=O)N[C@@H](C)C(=O)N[C@@H](CCCN=C(N)N)C(=O)N[C@@H](CCCN=C(N)N)C(=O)N[C@@H](CCCN=C(N)N)C(=O)N[C@@H](C)C(=O)N[C@@H](C)C(=O)N[C@@H](C)C(=O)N[C@@H](C)C(=O)N[C@@H](C)C(=O)O` (H-AAAAARRARRRAAAAA-OH) the figure was 4.74.
Turning to `C[C@H](N)C(=O)N[C@@H](C)C(=O)N[C@@H](C)C(=O)N[C@@H](C)C(=O)N[C@@H](C)C(=O)N[C@@H](CCCN=C(N)N)C(=O)N[C@@H](CCCN=C(N)N)C(=O)N[C@@H](C)C(=O)N[C@@H](CCCN=C(N)N)C(=O)N[C@@H](CCCN=C(N)N)C(=O)N[C@@H](C)C(=O)N[C@@H](C)C(=O)N[C@@H](C)C(=O)N[C@@H](C)C(=O)N[C@@H](C)C(=O)N[C@@H](C)C(=O)O` (H-AAAAARRARRAAAAAA-OH), the Kd entry was “No binding”.
For the compound `C[C@H](N)C(=O)N[C@@H](C)C(=O)N[C@@H](C)C(=O)N[C@@H](CCCN=C(N)N)C(=O)N[C@@H](CCCCN)C(=O)N[C@@H](CCCCN)C(=O)N[C@@H](CCCN=C(N)N)C(=O)N[C@@H](CCCN=C(N)N)C(=O)N[C@@H](CCC(N)=O)C(=O)N[C@@H](CCCN=C(N)N)C(=O)N[C@@H](CCCN=C(N)N)C(=O)N[C@@H](CCCN=C(N)N)C(=O)N[C@@H](C)C(=O)N[C@@H](C)C(=O)N[C@@H](C)C(=O)O` (H-AAARKKRRQRRRAAA-OH), the pKd was 7.15.
Consider `C[C@H](N)C(=O)N[C@@H](C)C(=O)N[C@@H](C)C(=O)N[C@@H](CCCN=C(N)N)C(=O)N[C@@H](CCCCN)C(=O)N[C@@H](CCCCN)C(=O)N[C@@H](CCCN=C(N)N)C(=O)N[C@@H](CCCN=C(N)N)C(=O)N[C@@H](C)C(=O)N[C@@H](CCCN=C(N)N)C(=O)N[C@@H](CCCN=C(N)N)C(=O)N[C@@H](CCCN=C(N)N)C(=O)N[C@@H](C)C(=O)N[C@@H](C)C(=O)N[C@@H](C)C(=O)O` (H-AAARKKRRARRRAAA-OH), for which the negative-log Kd (pKd) was 7.10.
For the compound `C[C@H](N)C(=O)N[C@@H](C)C(=O)N[C@@H](C)C(=O)N[C@@H](CCCN=C(N)N)C(=O)N[C@@H](C)C(=O)N[C@@H](C)C(=O)N[C@@H](CCCN=C(N)N)C(=O)N[C@@H](CCCN=C(N)N)C(=O)N[C@@H](C)C(=O)N[C@@H](CCCN=C(N)N)C(=O)N[C@@H](CCCN=C(N)N)C(=O)N[C@@H](CCCN=C(N)N)C(=O)N[C@@H](C)C(=O)N[C@@H](C)C(=O)N[C@@H](C)C(=O)O` (H-AAARAARRARRRAAA-OH), the pKd is 5.54.
Consider `C[C@H](N)C(=O)N[C@@H](C)C(=O)N[C@@H](C)C(=O)N[C@@H](C)C(=O)N[C@@H](C)C(=O)N[C@@H](CCCN=C(N)N)C(=O)N[C@@H](CCCN=C(N)N)C(=O)N[C@@H](C)C(=O)N[C@@H](CCCN=C(N)N)C(=O)N[C@@H](C)C(=O)N[C@@H](C)C(=O)N[C@@H](C)C(=O)N[C@@H](C)C(=O)N[C@@H](C)C(=O)N[C@@H](C)C(=O)N[C@@H](C)C(=O)O` (H-AAAAARRARAAAAAAA-OH), for which the Kd result is “No binding”.
As to `C[C@H](N)C(=O)N[C@@H](C)C(=O)N[C@@H](C)C(=O)N[C@@H](C)C(=O)N[C@@H](C)C(=O)N[C@@H](CCCN=C(N)N)C(=O)N[C@@H](CCCN=C(N)N)C(=O)N[C@@H](CCCN=C(N)N)C(=O)N[C@@H](CCCN=C(N)N)C(=O)N[C@@H](CCCN=C(N)N)C(=O)N[C@@H](C)C(=O)N[C@@H](C)C(=O)N[C@@H](C)C(=O)N[C@@H](C)C(=O)N[C@@H](C)C(=O)N[C@@H](C)C(=O)O` (H-AAAAARRRRRAAAAAA-OH), the pKd was 4.18.
